Source: US10307471B2, “Immunity inducer for saccharide antigens” (NATIONAL INSTITUTE OF ADVANCED INDUSTRIAL SCIENCE AND …, priority 2013, dated 2019)
“Also recorded” adds a separate entry of the source.

Key:
immunogen = assay: Serum antibody titer to the immunogen after immunity induction (ELISA); format: in vivo, mouse; conditions: for serum antibody titer to the immunogen, IgM subclass: mouse serum 3 and 7 days after final immunization vs unimmunized, liposome method with Lipid-A, ELISA; for serum antibody titer to the immunogen, IgG subclass: mouse serum after final immunization (7 days where stated) vs unimmunized, only primary additional immunization; for antibody titer in the IgG subclass: antigen not specified, data not shown
Procedure: (§1) Each immunogen was subcutaneously immunized on the first day, and additional immunization was abdominally conducted after two weeks. The blood was collected after 3 days and 7 days from the additional immunization to prepare serums. Antibody titers in the obtained serums were evaluated by ELISA. An immunogen and a glycoprotein containing an objective carbohydrate were used as solid-phased antigens by ELISA, and each was evaluated as an antibody titer to the immunogen and an antibody titer to the objective carbohydrate (FIGS. 1 to 4).
(§2) In order to evaluate subclasses (IgM and IgG) of produced immunoglobulin, evaluation was conducted using antibodies specific to IgM and IgG as secondary antibodies. An antibody titer was evaluated as an activity of peroxidase that is a labeling enzyme of a secondary antibody. TMB was used as a chromogenic substrate of peroxidase, and an intensity of an absorbance at 450 nm after adding 2 N-sulfuric acid after the reaction was evaluated. FIGS. 1 to 3 illustrate antibody titers of IgM subclass, and FIG. 4 illustrates antibody titers of IgG subclass.
Next, each of racemic forms of various immunity inducers (a1, b1 and c1) synthesized in Examples (1-1), (1-2) and (1-3) was dissolved into s lipid containing cholesterol and phospholipid with an adjuvant (Lipid-A), and immunized a mouse being a host generally producing a monoclonal antibody (C3H/HeN strain) in a liposome method (Eur. J. Immunol., 16, 951-956, 1986) to evaluate the immunity inducing ability.
(§3) Each of the immunity inducers was subcutaneously immunized and additionally abdominally immunized after 2 weeks. After the additional immunization, the blood was collected after 3 days and 7 days, and the serum was examined. The antibody titer in the obtained serum was evaluated by ELISA method. In ELISA method, using two types of antigens of an immunogen and a glycoprotein (Fetuin) containing 6′-Sialyl-LacNAc, 3′-Sialyl-LacNAc and LacNAc structures, they were evaluated as an antibody titer to the immunogen and an antibody titer to the objective carbohydrate, respectively.
(§4) In addition, in order to evaluate subclasses (IgM and IgG) of immunoglobulin, an antibody specific to IgM and IgG was used as a secondary antibody to evaluate the subclasses. The antibody titer was evaluated as an activity of peroxidase that is a labeling enzyme of a secondary antibody. TMB was used for a chromogenic substrate of peroxidase, and an intensity of an absorbance at 450 nm after adding 2 N-sulfuric acid after the reaction was evaluated.
Each of the immunity inducers was subcutaneously immunized on the first day, and the carrier compound was additionally abdominally immunized after 2 weeks. After the additional immunization, the blood was collected after 3 days and 7 days to prepare serums. Antibody titers of the obtained serums were evaluated by ELISA method. In ELISA method, using two types of antigens of an immunogen and a glycoprotein (Fetuin) containing a 6′-Sialyl-LacNAc structure, they were evaluated as an antibody titer to the immunogen and an antibody titer to the objective sugar chain, respectively. In addition, in order to evaluate subclasses (IgM and IgG) of produced immunoglobulin, an antibody specific to IgM and IgG was used as the secondary antibody to evaluate the subclasses. The antibody titer was evaluated as an activity of peroxidase that is a labeling enzyme of the secondary antibody. TMB was used for a chromogenic substrate of peroxidase, and an intensity of an absorbance at 450 nm after adding 2 N-sulfuric acid after the reaction was evaluated. […] Among the evaluated compounds, the antibody titer of a2 was the lowest, and the activity of a3-1 was the highest in the examined compounds.

glycoprotein (Fetuin) = assay: Serum antibody titer to glycoprotein (Fetuin) after immunity induction (ELISA); format: in vivo; conditions: mouse serum 3 and 7 days after final immunization vs unimmunized; Fetuin-a used as antigen for c1
Procedure: as §1
as §2, with “subclass. […]” for “subclass.”
as §3, with “After the additional immunization, the blood was collected after 3 days and 7 days, and the serum was examined.” left out
as §4, with “evaluated. […]” for “evaluated.”

glycoprotein (HL60) = assay: Serum antibody titer to HL60 glycoprotein after immunity induction (ELISA); format: in vivo, mouse
Procedure: FIG. 9 illustrates serum antibody titers after immunity inductions with sLe^X-C12L and Le^X-C12L: after immunizing a mouse using each of the sLe^X-C12L and Le^X-C12L compounds as an immunity inducer, an antibody titer of each subclass (IgM and IgG) of immunoglobulin in the serum was evaluated by ELISA. A and B show serum antibody titers of a mouse immunized with sLe^X-C12L, C and D show serum antibody titers of a mouse immunized with Le^X-C12. A and C: Evaluations on an immunogen used as an antigen by ELISA. B: Evaluation on a cell extract (HL60) containing a glycoprotein including an epitope of a target carbohydrate used as an antigen by ELISA. […]
as §1, with “The blood was collected after 3 days and 7 days from the additional immunization to prepare serums.” left out
In order to evaluate subclasses (IgM and IgG) of produced immunoglobulin, evaluation was conducted using antibodies specific to IgM and IgG as secondary antibodies. An antibody titer was evaluated as an activity of peroxidase that is a labeling enzyme of a secondary antibody. […]

[1] = tested on: glycoprotein (Fetuin) containing a 6′-Sialyl-LacNAc (CDw75) carbohydrate structure; conditions: Non Patent Literature 8, cited from earlier work

Which “serum antibody titer to the immunogen, IgM subclass” value (immunogen) does the source give for `CCCCCCCCCCCCC/C=C/[C@@H](O)C(CO[C@@H]1OC(CO)[C@@H](O[C@@H]2OC(CO)[C@H](O[C@H]3OC(CO)[C@H](O)C(O[C@@H]4OC(CO)[C@H](O)C(O)C4NC(C)=O)C3O)C(O)C2O)C(O)C1O)NC(=O)CCCCCCCCCCCCCCCCCCCCCCC` (stereo partly drawn) [Globoside, GalNAcβ1,3Galα1,4Galβ1,4Glcβ1-Cer, reference compound] here?
The value was “significantly increased”.

What about the “serum antibody titer to the immunogen, IgM subclass” value (immunogen; listed as globoside) of the same compound?
Its value is “significant increase of the antibody titer”.

And the “serum antibody titer to the immunogen, IgG subclass” value (immunogen)?
Its value is “not confirmed”.

Which “antibody titer in the IgG subclass” value (immunogen) does the source give for `CCCCCCCCCCCCCCCCCC(=O)NC(CCCCCCCCCC)CO[C@@H]1OC(CO)[C@@H](O[C@@H]2OC(CO[C@]3(C(=O)O)CC(O)[C@@H](NC(C)=O)C([C@H](O)[C@H](O)CO)O3)[C@H](O)C(O)C2O)C(O)C1NC(C)=O` (stereo partly drawn) [a1, Siaα2,6Galβ1,4GlcNAcβ1-CerA] here?
The value was “not observed”.

And the “serum antibody titer to the immunogen, IgM subclass” value (immunogen)?
The value was “significantly increased; also recorded: significant increases of antibody titers”.

What about the “serum antibody titer to glycoprotein (Fetuin), IgM subclass” value (glycoprotein (Fetuin)) of the same compound?
Its value is “significantly increased; also recorded: significant increases of antibody titers”.

With `CCCCCCCCCCC(CO[C@@H]1OC(CO)[C@@H](O[C@@H]2OC(CO[C@]3(C(=O)O)CC(O)[C@@H](NC(C)=O)C([C@H](O)[C@H](O)CO)O3)[C@H](O)C(O)C2O)C(O)C1NC(C)=O)NC(C)=O` (stereo partly drawn) [a2, reference compound] as the compound, how does the “rank of antibody titer / activity among the evaluated compounds” value (immunogen; a1, a2, a3-1, a3-2, a3-3 compared, IgM subclass) read?
Its value is “lowest”.

And the “serum antibody titer to the immunogen, IgM subclass” value (immunogen)?
Its value is “significant increases of antibody titers”.

What about the “serum antibody titer to glycoprotein (Fetuin), IgM subclass” value (glycoprotein (Fetuin)) of the same compound?
The value was “significant increases of antibody titers”.

With `CCCCCCCCCCCCCCCCCCCCCCCC(=O)N[C@@H](CCCCCCCCCC)CO[C@@H]1O[C@H](CO)[C@@H](O[C@@H]2O[C@H](CO)[C@H](O)[C@H](O[C@]3(C(=O)O)C[C@H](O)[C@@H](NC(C)=O)[C@H]([C@H](O)[C@H](O)CO)O3)[C@H]2O)[C@H](O[C@@H]2O[C@@H](C)[C@@H](O)[C@@H](O)[C@@H]2O)[C@H]1NC(C)=O` [sLe^X-C12L, Siaα2,3Galβ1,4(Fucα1,3)GlcNAcβ1-C12L] as the compound, how does the “serum antibody titer to the immunogen, IgM subclass” value (immunogen) read?
The value was “significant increases of antibody titers”.

What about the “serum antibody titer to the immunogen, IgG subclass” value (immunogen) of the same compound?
The value was “tendency of an increase of an antibody titer”.

And the “serum antibody titer to glycoprotein (HL60), IgG subclass” value (glycoprotein (HL60); only primary additional immunization)?
Its value is “significant increase of an antibody titer”.

And the “serum antibody titer to glycoprotein (HL60), IgM subclass” value (glycoprotein (HL60); serums after 3 days and 7 days from the immunization)?
The value was “significant increases of antibody titers”.

With Siaα2,3-Galβ1,4GlcNAcβ1-CerA [b1] as the compound, how does the “antibody titer in the IgG subclass” value (immunogen) read?
Its value is “not observed”.

And the “serum antibody titer to the immunogen, IgM subclass” value (immunogen)?
The value was “significantly increased; also recorded: significant increases of antibody titers”.

What about the “serum antibody titer to glycoprotein (Fetuin), IgM subclass” value (glycoprotein (Fetuin)) of the same compound?
Its value is “significantly increased; also recorded: significant increases of antibody titers”.

Which “appearance ratio of positive clones, conventional technique” value ([1]; 581 wells) does the source give for phosphatidylethanolamine here?
Its value is 1.3%.

And the “positive clones, conventional technique” value ([1]; out of selected 581 wells)?
The value was 8 wells.
